Data taken from patent US7563613B2, “Detoxification and decontamination using nanotechnology therapy” (University of Florida, priority 2001, dated 2009).

Columns and labels:
[1] = test system: guinea pig isolated hearts; assay: bupivacaine-induced QRS prolongation in isolated hearts (FIG. 8); conditions: bupivacaine (1 μM); isolated hearts paced at 200 BPM
[2] = at toxic plasma concentration; cited from earlier work
[3] = cited from earlier work

In the case of `CCCCN1CCCCC1C(=O)Nc1c(C)cccc1C` (stereo not shown) [Bupivacaine, bupivacaine], the QRS prolongation [1] was “induces QRS prolongation”.
In the case of `CN(C)CCC=C1c2ccccc2CCc2ccccc21` [amitriptyline], the bound in plasma [2] is given as 94.8±0.8% and the “plasma concentration that begins to cause cardiac toxicity” value ([3]; in vivo) is given as ~1,000 ng/ml.
For `C[C@H]1O[C@@H](O[C@H]2[C@@H](O)C[C@H](O[C@H]3[C@@H](O)C[C@H](O[C@H]4CC[C@@]5(C)[C@H](CC[C@@H]6[C@@H]5C[C@@H](O)[C@]5(C)[C@@H](C7=CC(=O)OC7)CC[C@]65O)C4)O[C@@H]3C)O[C@@H]2C)C[C@H](O)[C@@H]1O` [digoxin], the “concentration at which toxicity is caused” value ([3]; low concentrations) is given as “approximately 1 nM”.
